Results on three molecules are retold here after article PMC12812009, “Optimization of 4‐Amino‐2‐Pyridone Inhibitors of Proprotein Convertase Subtilisin/Kexin Type 9: Integrating Structure–Activity and Structure–Metabolism Relationships” (Chemmedchem, 2025).

The structures appear in SMILES notation. Like-named read-outs stand apart in the source and are kept apart here.

What is called CC50 is the concentration that lowers cell viability or growth by half.

Data set [1] is described as follows: MTT cell viability assay in HepG2 cell cultures. The class given is cell-based, human. To be noted: human, HepG2 cells, MTT. As to the method: The approach we set‐up to test the new PCSK9i was based on functional assay, which evaluated at the same time compounds cytotoxicity, and their effect on the secreted PCSK9 on the same cell line. First, cell viability was evaluated in HepG2 cell cultures using the MTT assay (CC50 values are reported in Table 1 and Figure 5 ) after 24 h of incubation in starving conditions (0.4% fetal bovine serum (FBS)). The low FBS concentration, and thus low extracellular lipoproteins, stimulates the sterol responsive element binding protein (SREBP) pathway, inducing the expression of LDLR, PCSK9, HMG‐CoA reductase,^[ [28] ^] thus increasing the uptake of exogenous cholesterol and enhancing the synthesis of endogenous cholesterol. This first step allowed us to calculate the CC50 and identify the noncytotoxic concentrations (viability higher than 90%; Table 1), then tested for PCSK9 inhibitory activity.
Cell viability was assessed using the MTT assay. Cells were seeded in 96‐well plates (2.5 × 10^4 cells/well) in MEM supplemented with 10% v/v FBS and incubated for 24 h. The cells were then treated with the synthesized compounds dissolved in DMSO at increasing concentrations (from 0.5 to 50 µM) in MEM supplemented with 0.4% v/v FBS for 24 h. Simvastatin [20 and 40 µM] and BBR [10 µM] (both from Merck, St. Louis, Missouri, USA) were used as internal controls as PCSK9 inducer and inhibitor, respectively.^[ [21] ^, [34] ^, [35] ^] The cells were then incubated for 2 h with a solution of MTT [1 mg mL^–1] in MEM supplemented with 0.4% v/v FBS, away from light sources. The supernatant was then collected and 200 µL of DMSO was added to each well to solubilize the newly formed formazan. Finally, an aliquot of 100 µL was taken to measure the absorbance at a wavelength of 570 nm using an absorbance microplate reader (Spark Tecan, Switzerland). Every experimental condition was run in duplicate and the average cell viability and standard deviation was calculated. Cell viability was expressed as the percentage of treated cells compared to untreated (basal) cells. CC50 values for each compound were calculated by interpolating the percentage of cell viability through nonlinear regression analysis of the log (inhibition) versus response using GraphPad Prism software version 8.0 (GraphPad Software Inc., La Jolla, CA).

The subject of another data set is PCSK9 mRNA. Kind of data set: PCSK9 mRNA expression in HepG2 cells by RTqPCR. The class given is cell-based, human. To be noted: 24 h incubation, increasing concentrations. Here is the method: To further investigate the mechanism of action of these compounds, we evaluated the PCSK9 mRNA levels after 24 h incubation with increasing concentrations of 5c, 6b, and 7.
Total RNA was extracted using the iScript RT‐qPCR Sample Prep reagent (Bio‐Rad), according to the manufacturer's instructions. QuantiNova SYBR Green RT‐PCR Kit (QIAGEN, Hilden, Germany) was used for qPCR, along with specific primers for 18S (FWD 5′‐[…]‐3′, REV 5′‐[…]‐3′) PCSK9 (FWD 5′‐CCTGCGCGTGCTCAACT‐3′, REV 5′‐[…]‐3′). The analyses were performed with the CFX96 Touch Real‐Time PCR Detection System (Bio‐Rad) with cycling conditions of 45 °C for 10 min, 95 °C for 5 min, and a repetition of 40 cycles at 95 °C for 5 s followed by 30 s at 60 °C. The data were expressed as Ct values and used for relative quantification of targets with ΔΔCt calculations. The ΔΔCt values were determined by multiplying the ratio value between the efficiency of specific primers and housekeeping 18S. The efficiency was calculated as ((10(‐1/slope))−1) × 100.
On the technique in general: Quantitative PCR measures a nucleic acid by following its amplification.

Data set [2] is described as follows: In vitro metabolic stability with mouse liver microsomes. The class given is in vitro ADME. To be noted: for metabolic stability/PCSK9 IC50 ratio (in words): with respect to 5c; for metabolic stability (in words): MLM + NADPH-generating system. As to the method:
All newly synthesized LSF derivatives of 5c were biologically evaluated to determine whether the introduced modifications influenced both metabolic stability and anti‐PCSK9 activity. Microsomal stability assays were conducted to assess the impact of LSF modifications on improving the stability of 5c. In these assays, LSF derivatives were incubated with mouse liver microsomes (MLM) and an NADPH‐generating system for 60 min, followed by HPLC analysis. Control samples included compounds and liver microsomes without the NADPH system, allowing for the assessment of nonspecific binding to microsomes. […] Acylated derivatives 12, 13, and 14 achieved stability levels exceeding 95%, as did the bicyclic derivative 7, which exemplifies a dual‐site functionalization.
MLM (pooled male) were obtained from Xenotech, LLC (Cambridge, Kansas City, USA). Glucose‐6‐phosphate (G6P), oxidized nicotinamide‐adenine‐dinucleotide phosphate (NADP^+), magnesium chloride (MgCl2), and glucose‐6‐phosphate‐dehydrogenase (G6PDH) were supplied by Sigma‐Aldrich (Milan, Italy). Metabolic stability assays were modified from Ferlenghi et al.^[ [33] ^] Briefly, samples were prepared in 100 mM phosphate buffered saline (PBS), pH 7.4, containing 1 mg ml^–1 MLM and a NADPH‐generating system (5 mM MgCl2, 10 mM glucose‐6‐phosphate, 2 mM NADP^+, 1.5 U ml^–1 of glucose‐6‐phosphate dehydrogenase). After incubation (37 °C, 5 min stirring), compounds stock solutions in DMSO were added to a final concentration of 10 µM. The final DMSO percentage in samples was kept at 0.5%. After 60 min, single aliquots of reaction mixture were withdrawn, added of two volumes of acetonitrile, centrifuged (10,000 g, 10 min) and the supernatant was analyzed by HPLC. The unspecific binding to MLM was evaluated by means of control samples in which the compounds were incubated in the absence of a NADPH generating system. The apparatus used for HPLC analysis was a Shimadzu instrument, with a reverse‐phase Nova‐Pak column (Waters) (C18 4 μm 3.9 × 150 mm, Waters). The mobile phase, pumped at a flow rate of 1.2 ml min^–1, consisted of water and acetonitrile in either a 50:50 (v/v) ratio (compounds 5c, 6a, 6b, 6c, 7, 8, 12, 13, 14, 17b) or a 40:60 (v/v) ratio (compounds 11 and 15) or a 30:70 (v/v) ratio (for compounds 17a, 18a, 18b). For compounds 9 and 10, a phosphate buffer (5.98 g L^–1 Na2HPO4, 0.19 g L^–1 KH2PO4, adjusted to pH 7.4 with 85% H3PO4 and supplemented with 1.4 mL L^–1 triethylamine; final pH: 8) and acetonitrile (50:50, v/v) were pumped at a flow rate of 2 mL min^–1. In all cases, column temperature was 35 °C, injection volume was 50 µl, and absorbance was monitored at 254 nm. Serial dilutions for the calibration curves were prepared in the interval 0.5–20 µM in either PBS:CH3CN or H2O:CH3CN mixture (50:50, v/v) for compounds 5c, 6a, 6b, 8, 9, 10, 11, 12, 13, 14, 15, 17a, 17b, 18a, 18b, and in acetonitrile for compounds 6c and 7.

[3] abbreviates: printed in Figures 5 and 8, HepG2, 24 h, read-out: CC50.

Turning to `Cc1cc2c(sc(=N)n2Cc2ccc(C(F)(F)F)cc2)c(=O)n1Cc1ccc(C(F)(F)F)cc1` [Compound 7, 2‐Imino‐6‐Methyl‐1,5‐Bis(4‐(Trifluoromethyl)benzyl)‐1,2‐Dihydrothiazolo[5,4‐c]pyridin‐4(5H)‐One], the CC50 at 24 h in data set [1] (setting [3]) was above 50 µM. In addition, in the data set with PCSK9 mRNA, the “PCSK9 mRNA expression (in words)” value is “strongly suppressed the PCSK9 mRNA expression”. The “metabolic stability, percentage of intact compound recovered relative to control” value in data set [2] (MLM 1 mg/ml + NADPH-generating system, 60 min, 10 µM, HPLC) is given as “exceeding 95%”. The “metabolic stability/PCSK9 IC50 ratio (in words)” value in data set [2] is recorded as “higher metabolic stability/PCSK9 IC50 ratio”.
For the molecule `Cc1cc(NCc2ccc(C(F)(F)F)cc2)cc(=O)n1Cc1ccc(C(F)(F)F)cc1` [Compound 5c], in data set [1] (setting [3]), the CC50 at 24 h was determined as 32.4 µM. The “PCSK9 mRNA expression (in words)” value in the data set on PCSK9 mRNA is recorded as “strongly suppressed the PCSK9 mRNA expression”. Also, the “metabolic stability (in words)” value in data set [2] (60 min) is recorded as “suboptimal metabolic stability”.
Regarding `Cc1cc(NCc2ccc(C(F)(F)F)cc2)c(Br)c(=O)n1Cc1ccc(C(F)(F)F)cc1` [Compound 6b, 3‐Bromo‐6‐Methyl‐1‐(4‐(Trifluoromethyl)Benzyl)‐4‐((4‐(Trifluoromethyl)Benzyl)Amino)pyridin‐2(1H)‐One], in data set [1] (24 h incubation, HepG2, 0.4% FBS, 0.5-50.0 μM, read-out: CC50 (CI 95%)), the CC50 at 24 h was found to be 27 µM. In the data set on PCSK9 mRNA, the “PCSK9 mRNA expression (in words)” value was “strongly suppressed the PCSK9 mRNA expression”. Also, in data set [2] (60 min), the “metabolic stability (in words)” value is recorded as “greater stability compared to chlorinated 6a”. Moreover, the “metabolic stability/PCSK9 IC50 ratio (in words)” value in data set [2] is reported as “higher metabolic stability/PCSK9 IC50 ratio”.
